Patent publication US20100222396A1 (Novartis AG, priority 2009, published 2010)

Experiments:
[1] = biological target: T1, human orexin 2 receptor (hOx2R) (Homo sapiens, UniProt O43614); assay: Radioligand binding assay ([125I]orexin A competition), hOx2R; conditions: CHO or HEK cell membranes, 1 h room temperature
T1 construct: expressed in transfected cells
T1 sequence (O43614 1-444): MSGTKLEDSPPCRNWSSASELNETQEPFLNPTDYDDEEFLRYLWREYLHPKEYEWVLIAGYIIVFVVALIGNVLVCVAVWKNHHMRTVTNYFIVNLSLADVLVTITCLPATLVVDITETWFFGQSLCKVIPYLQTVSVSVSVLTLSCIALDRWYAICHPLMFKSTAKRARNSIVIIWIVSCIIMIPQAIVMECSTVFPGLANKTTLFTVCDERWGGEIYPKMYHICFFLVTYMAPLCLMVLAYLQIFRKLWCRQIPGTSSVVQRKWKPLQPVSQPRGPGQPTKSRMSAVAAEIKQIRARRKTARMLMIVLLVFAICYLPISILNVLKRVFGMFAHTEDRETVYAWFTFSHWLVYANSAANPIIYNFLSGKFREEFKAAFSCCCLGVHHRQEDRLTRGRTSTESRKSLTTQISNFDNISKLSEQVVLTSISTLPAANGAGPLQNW
How it was run: (§1)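 Membranes from CHO or HEK cells expressing the human receptor, incubated 1 h at room temperature with […] [125I]orexin A and compound in HEPES pH 7.5 buffer with BSA, MgCl2, CaCl2 and tween.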

[2] = biological target: T1, human orexin 2 receptor (hOx2R); assay: Calcium accumulation in cells (FLIPR), antagonism of orexin A, hOx2R; assay type: cell-based; conditions: for Kd: cells expressing human orexin 2 receptor, IC50 vs orexin A converted by Cheng and Prusoff correction
How it was run: (§2)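 Serum-starved receptor-expressing cells were loaded with Fluo-4-AM (2 μM) plus probenecid (0.1 mM) in HEPES buffer, pH 7.4, with 1% BSA, and Ca2+ fluorescence was read on FLIPR. Compounds (10^−9–10^−5 M) were added first, and orexin A was added one hour later to measure antagonism.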

[3] = biological target: T2, human orexin 1 receptor (hOx1R) (Homo sapiens, UniProt O43613); assay: Radioligand binding assay ([125I]orexin A competition), hOx1R; conditions: CHO or HEK cell membranes, 1 h room temperature
T2 construct: expressed in transfected cells
T2 sequence (O43613 1-425): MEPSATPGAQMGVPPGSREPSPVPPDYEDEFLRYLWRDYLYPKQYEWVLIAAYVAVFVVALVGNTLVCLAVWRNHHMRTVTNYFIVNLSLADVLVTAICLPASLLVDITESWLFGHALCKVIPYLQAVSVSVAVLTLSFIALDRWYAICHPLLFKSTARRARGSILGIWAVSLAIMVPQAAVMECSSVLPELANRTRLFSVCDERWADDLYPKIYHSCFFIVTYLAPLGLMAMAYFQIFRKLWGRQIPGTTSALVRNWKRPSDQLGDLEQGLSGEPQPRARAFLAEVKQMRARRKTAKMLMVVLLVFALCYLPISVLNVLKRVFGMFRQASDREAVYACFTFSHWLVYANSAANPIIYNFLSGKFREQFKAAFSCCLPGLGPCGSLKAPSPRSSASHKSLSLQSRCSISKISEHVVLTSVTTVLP
How it was run: as §1

[4] = biological target: T2, human orexin 1 receptor (hOx1R); assay: Calcium accumulation in cells (FLIPR), antagonism of orexin A, hOx1R; assay type: cell-based; conditions: for Kd: cells expressing human orexin 1 receptor, IC50 vs orexin A converted by Cheng and Prusoff correction
How it was run: as §2

[5] = measured at a concentration of 10 μM of compound (cells marked ^a)

SMILES	Kd [1] [nM]	Kd [2] [nM]	Kd [3] [nM]	Kd [4] [nM]	inhibition at 10 µM [2, 5] [%]	inhibition at 10 µM [4, 5] [%]
CN(C(=O)c1ccccc1)[C@@H](Cc1ccccc1)[C@@H](O)CNC(=O)c1ccccn1 [Example 95, Pyridine-2-carboxylic acid [(2S,3S)-3-(benzoyl-methyl-amino)-2-hydroxy-4-phenyl-butyl]-amide]	59	140	3440	3430	–	–
CN(C(=O)c1ccccc1)[C@H](CCNC(=O)c1ccccn1)Cc1ccc(Cl)cc1 [Example 70, Pyridine-2-carboxylic acid [(S)-3-(benzoyl-methyl-amino)-4-(4-chloro-phenyl)-butyl]-amide]	8310	–	> 10000	–	29	0
Cc1nc(C(=O)NCC[C@H](Cc2ccccc2)N(C)C(=O)c2ccc3c(c2)OCO3)c(-c2ccccc2F)s1 [Example 83, 5-(2-Fluoro-phenyl)-2-methyl-thiazole-4-carboxylic acid {(S)-3-[(benzo[1,3]dioxole-5-carbonyl)-methyl-amino]-4-phenyl-butyl}-amide]	21	3	54	42	–	–
CN(C(=O)c1ccc2c(c1)OCO2)[C@H](CCNC(=O)c1cccn1C)Cc1ccccc1 [Example 76]	4	1	94	376	–	–
CCCOc1cccc(C(=O)N(C)[C@H](CCNC(=O)c2cccn2C)Cc2ccccc2)c1 [Example 126]	87	56	2480	2100	–	–
CN(C(=O)c1cc(C(F)(F)F)cc(C(F)(F)F)c1)[C@H](CCNC(=O)c1nc2ccccc2n1C)Cc1ccccc1 [Example 12, 1-Methyl-1H-benzoimidazole-2-carboxylic acid {(S)-3-[(3,5-bis-trifluoromethyl-benzoyl)-methyl-amino]-4-phenyl-butyl}-amide]	98	40	1070	437	–	–
CN(C(=O)c1ccccc1)[C@H](CCNC(=O)c1ccccn1)Cc1ccccc1 [Example 37, Pyridine-2-carboxylic acid [(S)-3-(benzoyl-methyl-amino)-4-phenyl-butyl]-amide]	479	440	358	836	–	–
Cc1cc(C)cc(C(=O)N(C)[C@H](CCNC(=O)c2ccccn2)Cc2ccccc2)c1 [Example 97, Pyridine-2-carboxylic acid {(S)-3-[(3,5-dimethyl-benzoyl)-methyl-amino]-4-phenyl-butyl}-amide]	30	39	46	185	–	–
